Data reported in patent publication US20240081329A1, “NON-PROTEIN PHENYLALANINE ANALOGUES FOR INHIBITING CYANOBACTERIA AND PLANT GROWTH” (YISSUM RESEARCH DEVELOPMENT COMPANY OF THE HEBREW …, priority 2016, published 2024).
“Also recorded” adds a separate entry of the source.

Key:
A. thaliana [1] = experiment: Combined treatment of Phe-analogues and glyphosate, A. thaliana root growth / seed-germination; type: in vivo, Arabidopsis thaliana
Protocol: FIG. 9 is an image depicting the effects of Phe-analogs, glyphosate and combination thereof on Arabidopsis thaliana (var. Columbia) seed-germination and seedlings establishment. “ZYX1”=m-Tyr (3′ OH phenylalanine); “ZYX2”=3′ fluoro phenylalanine; “RoundUp”=Glyphosate; “uM”=μicromolar.
For example, when inhibition of weed growth (e.g., A. thaliana) is achieved using an amount of 100 μM of glyphosate (based on TAIR database) when used in the absence of the effective amount of the compound depicted by Formula A, I or II, the concentration of glyphosate required for achieving the same growth inhibition of the weed in the presence of the effective amount of the compound depicted by Formula A, I or II is 10 μM of glyphosate, i.e., a reduction of about 90% in the concentration of glyphosate (e.g., using the ZYX1 compound as shown in FIG. 9).
Compared to herbicides (e.g., glyphosate) applied alone, the performance of herbicide mixtures can be either synergistic, or additive. Additivity is the combined action, which is equal to the total response predicted by taking into account the response of each herbicide applied alone. Synergism is the combined action of two herbicides where the observed response to their joint application is greater than the response predicted by Colby method [S. R. COLBY. Calculating Synergistic and Antagonistic Responses of Herbicide Combinations. […]

[2] = test system: glyphosate resistant Lolium rigidum Gaudin; experiment: Combined treatment on glyphosate resistant weed, seed-germination and seedlings establishment; type: in vivo
Excerpt: FIG. 10 is an image depicting the effects of Phe-analogs, on glyphosate resistant Lolium rigidum Gaudin (weed) seed-germination and seedlings establishment. ZYX1=m-Tyr; “RoundUp”=Glyphosate; “uM”=μicromolar.
In recent years, Lolium rigidum Gaudin (annual ryegrass) resistance to a number of herbicides has started to spread worldwide.

A. thaliana [3] = conditions: absence of Formula A, I or II compound; based on TAIR database; cited from earlier work
Bacillus subtilis = experiment: Antibacterial assay, bacterial growth by optical density (OD=600 nm); type: cell-based; conditions: 0-1000 μM
Protocol: (§1) FIGS. 6A-B depict the effects of m-Tyr on the growth rates of model gram-positive and gram-negative bacteria. Bacterial growth was determined using optical density data (OD=600 nm) of E. coli and B. subtilis cultures at different time points and at different m-Tyr concentrations (0-1000 μM, the color index for m-Tyr concentration used is in the right side of each panel). FIG. 6A—E. coli; FIG. 6B—Bacillus subtilis; Note that cell growth of E. coli and Bacillus subtilis was not affected by m-Tyr, even when used at high concentrations of 1000 micromolar.

E. coli = experiment: as above; type: cell-based, Escherichia coli; conditions: 0-1000 μM
Protocol: as §1

marine bacteria = experiment: Effect on marine bacteria; type: cell-based
Excerpt: (§2) Thus, m-Tyr and its related Phe-analogues represent the first selective agents against cyanoblooming, a serious threat to both marine ecology and global economy.

Microcystis aeruginosa = experiment: Lake Kinneret water samples containing toxic cyanobacteria, bleaching and growth (OD=730); type: cell-based
Protocol: (§3) FIGS. 5A-E depict the effect of m-Tyr on killing cyanobacteria Microcystis aeruginosa (FIGS. 5A-B) and Synechocystis PCC 6803 (FIGS. 5C-E) from water samples. FIG. 5A is a graph depicting the effects of m-Tyr on lake Kinneret samples containing the highly toxic cyanobacteria, Microcystis aeruginosa. […] The growth rate was determined by the culture absorbance at OD=730. FIG. 5B—raw data of the water samples used in the experiment shown in FIG. 5A, in the presence of the indicated concentrations of m-Tyr. FIG. 5C—a graph depicting the effects of m-Tyr on the cyanobacteria, Synechocystis PCC 6803. The tests were performed with samples of Synechocystis PCC 6803, in the absence (0) or presence of various m-Tyr concentrations (1-1000 μM) as indicated. […] The growth rate was determined by the culture absorbance at OD=730. FIG. 5D—raw data of the water samples used in the experiment shown in FIG. 5C, in the presence of the indicated concentrations of m-Tyr. FIG. 5E—The cell mortality of the cyanobacteria Synechocystis PCC 6803 was evaluated by the numbers of colonies appearing on Agar plates.

[4] = Movellan et al. 2014; cited from earlier work
cyanobacteria = experiment: Viability experiments / toxicity to cyanobacteria; type: cell-based
Excerpt: as §2

[5] = test system: Arabidopsis thaliana (var. Columbia); conditions: Bertin et al. 2007; cited from earlier work
yeast = experiment: Sensitivity of yeast cultures; type: cell-based; conditions: even at concentrations as high as 15 mM; data not shown
algae (chlamydomonas) = experiment: Inhibition of algae; type: cell-based; conditions: even in the millimolar range
Synechocystis PCC 6803 = experiment: Growth inhibition / bleaching of cyanobacteria culture (absorbance OD=730, colonies on agar); type: cell-based; conditions: for effect on growth / killing of the cyanobacteria: water samples, OD=730
Protocol: FIGS. 3A-B depict the inhibition of cyanobacteria by the phenylalanine analogue of some embodiments of the invention (“F”). FIG. 3A—a graph depicting the inhibition of growth of cyanobacteria Synechocystis PCC 6803 by increasing concentrations of the phenylalanine analogue of some embodiments of the invention. FIG. 3B—raw data of the results shown in FIG. 3A as detected after 150 hours.
as §3, with “aeruginosa. The tests were performed with samples collected from lake Kinneret, that are contaminated by its native toxic cyanobacteria Microcystis aeruginosa, in the absence (0) or presence of various m-Tyr concentrations (1-20 μM) as indicated.” for “aeruginosa.”

algae (Chlorella) = experiment: Effect on algae; type: cell-based
Excerpt: as §2

[6] = test system: Arabidopsis thaliana (var. Columbia); experiment: Arabidopsis seed-germination and seedlings establishment on MS medium with Phe-analogues; type: in vivo; conditions: for appearance of treated seedlings (cotyledons, leaves): seedlings on MS medium with analogue; for effect on seed-germination: seeds sown on MS medium with 0-80 μM analogue
Excerpt: FIGS. 2A-D are images depicting the effects of m-Tyr and several other phenylalanine (Phe)-analogs, modified in the meta position of the R-group, on Arabidopsis thaliana (var. Columbia) seed-germination and seedlings establishment. FIG. 2A—m-Tyr; FIG. 2B—Phe-analog “CH3”; FIG. 2C—Phe-analog “F”; FIG. 2D—Phe-analog “CF3”.
The germination of Arabidopsis thaliana plants is inhibited by the Phe-analogues of some embodiments of the invention—The efficiency of the developed compounds modified at the ‘meta’ position of the phenyl ring (FIG. 1) were analysed on Arabidopsis thaliana (var. Columbia). Following […] for 5 days at 4° C., Arabidopsis seeds were sown on Murashige-Skoog medium (MS) supplemented with increased concentrations (0-80 μM) of different Phe-analogues (in which “Y” was either “CH3”, “F” or “CF3”; see, FIG. 1). […] It should be noted that many more phe-analogues can be easily synthesized chemically based on the present teachings.

[7] = type: physicochemical
Excerpt: Although m-Tyr is an efficient allelopathic agent, its direct application for agriculture use is limited due to its instability in soil and aqueous environment [Movellan, J. et al. Synthesis and evaluation as biodegradable herbicides of halogenated analogs of L-meta-tyrosine. Environ. Sci. Pollut. Res. 21, 4861-4870 (2014)].

## O=C(O)CNCP(=O)(O)O [glyphosate]
A. thaliana [1]; in the presence of the effective amount of the compound (ZYX1, FIG. 9)
  concentration of glyphosate required for the same growth inhibition in combination: 10 µM
[2]; FIG. 10
  response of glyphosate resistant Lolium, applied separately: resistance
[2]; local Israeli variety of Lolium
  elevated glyphosate concentration to which the Lolium variety is resistant: 60 folds of the recommended concentration
A. thaliana [3]
  amount of glyphosate achieving inhibition of weed growth, used alone: 100 µM

## N[C@@H](Cc1cccc(O)c1)C(=O)O [m-Tyr, 3-hydroxyphenylalanine]
A. thaliana [1]; combination of ZYX1 with glyphosate, FIG. 9
  reduction in the concentration of glyphosate: about 90%
Bacillus subtilis
  effect on cell growth: did not affect cell growth; also recorded: no (or very little) effect; also recorded: not affected
E. coli
  effect on cell growth: did not affect cell growth; also recorded: no (or very little) effect; also recorded: not affected
Marine bacteria
  effect on marine bacteria: no obvious effects
Microcystis aeruginosa; OD=730
  effect on growth / killing of the cyanobacteria: very strong effect
Microcystis aeruginosa; OD=730, listed as meta tyrosine
  effect on growth / killing of the cyanobacteria: effective
Microcystis aeruginosa; increasing concentrations (printed 0 mM to 10 mM)
  bleaching of the cyanobacteria culture: bleaching of the culture
[4]
  stability in soil and aqueous environment: instability
cyanobacteria; very low μM range
  effect on / toxicity to cyanobacteria: highly susceptible; also recorded: strongly affecting; also recorded: toxic
cyanobacteria; viability experiments
  concentration as low as which addition to the growth media induces cell death: 0.5 µM
[5]
  phytotoxic activity (inhibition of germination of angiosperms, root growth): promising phytotoxic activity
yeast
  sensitivity of yeast cultures: not sensitive
Algae (chlamydomonas)
  inhibition of algae: no inhibition effects
Synechocystis PCC 6803; listed as meta tyrosine
  effect on growth / killing of the cyanobacteria: effective
Algae (Chlorella)
  effect on algae: no obvious effects
[6]
  appearance of treated seedlings (cotyledons, leaves): white cotyledons and yellowish leaves
  effect on seed-germination: strongly affected
[6]; seedlings treated with 10 μM, data not shown
  chloroplast morphology, microscopic analysis: altered chloroplast morphologies and less grana lamella

## N[C@@H](Cc1cccc(F)c1)C(=O)O [F, 3′ fluoro phenylalanine]
Synechocystis PCC 6803; culture absorbance at OD=730
  low concentration at which inhibition of growth rate is evident: 6.25 µM
Synechocystis PCC 6803; increasing concentrations, 0 to 50 μM, FIG. 3B after 150 hours
  bleaching of the cyanobacteria culture: bleaching of the culture
Synechocystis PCC 6803
  effect on growth / killing of the cyanobacteria: effective; also recorded: very strong effect
[6]
  appearance of treated seedlings (cotyledons, leaves): white cotyledons and yellowish leaves
  effect on seed-germination: strongly affected
[7]
  stability compared with the meta tyrosine molecule: more stable
